Laboratory results reported in patent US20240197761A1, “FUCOSYLATION AND IMMUNE MODULATION IN CANCER” (H. LEE MOFFITT CANCER CENTER AND RESEARCH INSTITUTE, INC., priority 2021, published 2024).

What was measured:
BM-derived MDSCs = assay: NO production of BM-derived MDSCs (Greiss assay); format: cell-based, Balb/C mice; details: 250 uM L-fuc prior, during and/or after GM/G-CSF stimulation
Description: Tlhe myeloid cells, which were stimulated to imlmuno, suppressive MDSCs using GM/G-CSF, were divided into 3 treatment groups: (i) Treatment±250 uM L-fuc prior, duri ng, and after GM/G-CSF stimulation. Treatment±250 uM L-fuc during and after GM/G-CSF stimulation. (ii) Treatment±250 uM L-fuc only after GM/G-CSF stimulation. Greiss assay timepoints reier to hours after initial dose of L-fuc regardless of when cells were treated, L-fuc abrogated their ability to glenerate NO. […] We subsequently co-cultured the modulated MDSCs wilh T cells, which were then activated or not with CD3/CD28 beads and measured for IFNψ production. *. p •<0.05

mouse melanoma tumors = assay: Earlier mouse melanoma model with dietary fucose supplementation or FUK overexpression (tumor growth, CD45 and DX5 staining); format: in vivo
Description: To determine whether dietary or genetic modulation of fucosylation affects tumor growth and metastasis, we previously studied a mouse melanoma model in which tumor fucosylation was increased either by dietary supplementation (FIG. 2A) with 100 mM fucose or by overexpressing mouse FUK (FIG. 2B). […] To determine whether fucosylation affects tumor infiltration by immune cells, Immunofluorescent staining analysis of CD45 (general leukocyte marker, red) and DAPI (blue) was performed (FIG. 2C). To determine whether fucosylation affects tumor infiltration by NK cells, immunofluorescent staining analysis for DX5 (an NK cell marker, red) and DAPI (blue) was performed (FIG. 2D). Both NK cells and CD4+ T cells were elevated in samples from fucose supplemented mice.

dendritic cells = assay: TLR profiles of bone marrow-derived dendritic cells (RT-qPCR); format: cell-based, Balb/C mice; details: 250 uM L-fucose, 96 hours, then LPS 24 hours
Description: Bone marrow was harvested from either 4-week-old (young) or 6-month-old (old) Balb/C mice. Cells were isolated and cultured in DC maturation cocktail ([…], […], ±250 uM L-fucose) for 96 hours. At 96 hours the cells were treated with 10 ug/ml LPS for 24 hours after which the cells were harvested, and the RNA was extracted. RT-qPCR was performed. Data represents fold change of indicated genes normalized to values of young mice. N=3 mice per age group.

SM1 tumors = assay: Immunodepletion mouse model (CD4+ or CD8+ T cell depletion), SM1; format: in vivo, C57BL6 mice; details: CD4+ but not CD8+T cell depletion
Source text: Total TILs were gated first to single cells (based on forward scatter height vs width, followed by side scatter height vs. width). Live cells were gated from the Zombie negative population from the population above. TILs were gated based on splenocyte size from a control spleen. Individual immune subpopulations were sub-gated from the total TIL population using the following staining criteria: CD3+ for CD3+ T cells; CD3+/CD4+/CD8− for CD4+T cells; CD3+/CD4−/CD8+ for CD8+ T cells, CD11c+/CD11b+ for DCs; either NK1.1 (for C57/BL6 mice) or DX5 (for C3H/HeJ) for NK cells; CD11b+/GR1+ for MDSC-like cells; and F4/80+ for macrophages. Single-cell suspensions from tumor and spleen tissue were stained with Live/Dead Zombie NIR (Biolegend, (San Diego, CA)) at 1:1,000 in PBS for 20 min. Cell suspensions were spun down and stained with the following with antibodies at 0.5 μg/ml per antibody: APC anti-mouse CD3, Pacific Blue anti-mouse CD4, BV785 anti-mouse CD8, PerCP anti-mouse CD25, FITC anti-mouse F4/80, PeCy7 anti-mouse CD11c, PE anti-mouse NK1.1 or PE anti-mouse DX5, and PerCP-Cy5.5 anti-mouse CD11 b. After staining, the cells were washed and fixed (2% formaldehyde), followed by another wash and flow cytometric analysis. The compensation controls were prepared using 0.5 μg/mL of each antibody with UltraComp eBeads, (ThermoFisher Scientific (Waltham, MA)). […]

SW1 tumors = assay: NSG melanoma model: SW1 tumor growth in immunodeficient mice; format: in vivo
Source text: All animals were housed at the Vincent A. Stabile Research building animal facility at H. Lee Moffitt Cancer Center & Research Institute, which is fully accredited by the Association for Assessment and Accreditation of Laboratory Animal Care International (AAALAC, #434), and are managed in accordance with the Guide for the Care and Use of Laboratory Animals (“The Guide”), the Animal Welfare Regulations Title 9 Code of Federal Regulations Subchapter A, “Animal Welfare”, Parts 1-3 (AWR), the Public Health Service Policy on Humane Care and Use of Laboratory Animals (PHS Policy), and by the USF Institutional Animal Care and Use Committee's Principles and Procedures of Animal Care and Use (IACUC Principles). The experiments and protocols detailed in this study received institutional approval by the Moffitt IACUC (RIS00001625). Four-to-six-week-old female C3H/HeN and male C57BL6 mice were purchased from Charles Rivers Laboratories for the indicated experiments. Four-to-six-week-old male NSG mice from the Lau laboratory breeding colony were used for the indicated experiments. Power calculations were used to determine mouse cohort sizes to detect significant changes in tumor sizes. […] Mouse tumor volumes were measured using length, width and depth divided by 2. […]

SMILES: C[C@H](O)[C@@H](O)[C@@H](O)[C@H](O)C=O [L-fucose]
- NO production (BM-derived MDSCs): abrogated
- block of tumor growth and metastasis (mouse melanoma tumors; dietary L-fucose supplementation, mouse models): > 50%
- tumor suppression (mouse melanoma tumors; dietary supplementation with 100 mM fucose (FIG. 2A)): increased tumor suppression
- NK cells and CD4+ T cells in tumor samples (mouse melanoma tumors; fucose supplemented mice (FIG. 2C, 2D)): elevated
- TLR profiles of dendritic cells (dendritic cells): alters
- L-fuc-triggered tumor suppression and increases in total itICs (SM1 tumors): abrogated
- SW1 tumor growth (SW1 tumors): did not reduce
